Experimental data: patent publication EP0090736A1, “Steroidal nitroso ureum with oncostatic activity, process for its preparation and its use as a medicine” (Etablissement Public dit: CENTRE NATIONAL DE LA RECHERCHE …, priority 1982, dated 1983)

Legend:
Acute toxicity (DL50) = type: in vivo
Experimental: On a, en outre, indiqué ci-après dans le tableau pour les composés connus et pour le composé selon la présente invention les MEDI, c'est-à-dire les doses médianes, les doses optimums les DL50 et par là l'index thérapeutique de ces composés.
On constate qu'à l'activité déterminée précédemment s'ajoute la dose médiane la plus grande jamais observée et une DL50 aiguë de 700 mg/kg qui est la plus avantageuse parmi toutes les autres nitrosourées, ce qui conduit à l'indice thérapeutique le plus élevé jamais obtenu jusqu'à présent pour ce type de composé oncostatique.

leucémie L1210 = test: Oncostatic activity on L1210 leukemia in mice (survival T/C); type: in vivo, souris (DBA2 - C57BL 100); conditions: for Dose optimale: L1210 leukemia, 10^5 cells i.p., treatment on days 1, 5 and 9, suspension in olive oil
Source text: Le composé selon la présente invention a été étudié sur la leucémie L1210 en comparaison avec d'autres nitrosourées présentant également des propriétés oncostatiques. Il s'agit essentiellement de la BCNU, la CCNU, la Me CCNU, la RFCNU, la RPCNU et la Chlorozotocine. Ces composés, ainsi que le XPCNU, sont bien connus et décrits par exemple dans Biomedicine Express, vol. 23, n° 10 du 10 décembre 1975, pages 410-413.
Pour chaque composé, 10^5 cellules leucémiques ont été inoculées à 80 souris (DBA2 - C57BL 100), par voie intrapéritonéale.
Les traitements ont débuté un jour après la transplantation et ont été poursuivis les cinquième et neuvième jours. Les dérivés devant être testés sont administrés en suspension dans l'huile d'olive à 70 souris. Les doses injectées sont variables, chaque souris étant pesée individuellement. Les 10 souris restantes constituent le groupe témoin et reçoivent, en placébo, des volumes équivalents d'huile d'olive.
Le premier jour, les nitrosourées testées sont administrées, en doses variables, aux souris traitées.
Les cinquième et neuvième jours, les injections sont renouvelées sans signe macroscopique de toxicité.
Pour chaque composé, les activités oncostatiques ont été déterminées pour une dose spécifique et varient en fonction de la quantité administrée. Lorsque l'activité oncostatique est supérieure à 125 et si la différence des groupes témoins et traités à une signification statistique (test de WILCOXON), le composé est considéré comme étant actif à la dose utilisée.
La figure ci-annexée indique en fonction des doses de principe actif appliquées en milligramme par kilogramme le rapport T/C défini comme suit : T/C = moyenne de survie des groupes traités / moyenne de survie des groupes témoins x 100
La mention ∞ indique que plus de 50 % des animaux traités sont guéris.

[1] = derived from DL50 and optimal dose on L1210

SMILES	DL50 (Acute toxicity (DL50); acute DL50)	Index thérapeutique (Acute toxicity (DL50); [1])	Dose optimale (leucémie L1210)	LD50 (Acute toxicity (DL50); in vivo, acute DL50)	selectivity ratio (Acute toxicity (DL50); mouse, in vivo, derived from DL50 and optimal dose on L1210, read-out: Index thérapeutique)	activité oncostatique (T/C) (leucémie L1210; T/C = mean survival treated / mean survival controls x 100, as a function of dose (figure), compared with other nitrosoureas)
O=NN(CCCl)C(=O)N[C@H]1C(O)O[C@H](CO)[C@@H](O)[C@@H]1O (some centres unmarked) [CZT, Chlorozotocine]	35 mg/kg	2,33	15 mg/kg	–	–	–
C[C@]12CC[C@H]3[C@@H](CC=C4C[C@@H](O)CC[C@@]43C)[C@@H]1CC[C@@H]2NC(=O)N(CCCl)N=O [Composé ex. 1, 17β-(N-2-chloroéthyl-N'-nitrosouréyl)-5-androsten-3β-ol]	–	–	125 mg/kg	700 mg/kg	5.6	la meilleure activité oncostatique
CC1(C)O[C@@H]2[C@@H](COC(=O)c3ccc([N+](=O)[O-])cc3)OC(NC(=O)N(CCCl)N=O)[C@@H]2O1 (some centres unmarked) [RFCNU]	90 mg/kg	4,5	20 mg/kg	–	–	–
CC(=O)O[C@@H]1[C@H](OC(C)=O)COC(NC(=O)N(CCCl)N=O)[C@@H]1OC(C)=O (some centres unmarked) [RPCNU]	50 mg/kg	3,3	15 mg/kg	–	–	–
CC(=O)OC1COC(NC(=O)N(CCCl)N=O)C(OC(C)=O)C1OC(C)=O (centres unmarked) [XPCNU]	–	–	15 mg/kg	–	–	–
